Data on 47 compounds can be found in EP0332295A2, “Novel imidazole derivative” (priority 1988, dated 1989).

In experiment [1] the test system is mice. The experiment can be described thus: Anti-hypoxia action (hypobaric hypoxia, existence time at 180 mmHg, life prolongation ratio). Type of experiment: in vivo. To be noted: male ddy mice, administered in the abdominal cavity at 25 mg/kg, 30 minutes before pressure reduction to 180 mmHg, ratio of existence time to saline control (cut-off 15 minutes); for response vs control in vivo at 25 mg/kg: Mus musculus, ip. How it is done:
With respect to each of the above-mentioned compounds (compounds Nos. 1 through 54), the anti-hypoxia action was tested according to the following method and was evaluated by the life prolongation ratio.
Male mice if the ddy-line, which were 5 to 8 weeks old, were used as test animals, and they were divided into groups, each consisting of 7 to 10 mice. The compound to be tested was dissolved in a physiological saline solution. If the compound to be tested was insoluble, the compound was suspended in 1% gum arabic. The solution or suspension was administered in the abdominal cavity at a does of 25 mg/kg and when 30 minutes had passed from the point of the administration, the mice were independently placed one by one into a desiccator (capacity = 1 liter) and the pressure in the desiccator was reduced to 180 mmHg by a vacuum pump.
The period of from the point of initiation of the reduction of the pressure to the point of the stop of breathing was regarded as the existence time. When the mouse lived for more than 15 minutes, the calculation was done while regarding the existence time as being 15 minutes.
The significant difference test of the existence time was carried out according to the student t-test method using controls to which a physiological saline solution alone had been administered. The ratio of the existence time of the sample-administered group to the existence time of the physiological saline solution-administered control group was calculated as the life prolongation ratio.

The subject of experiment [2] is mice. The description is as above. To be noted: Mus musculus, ip, male ddy mice, 30 minutes before pressure reduction to 180 mmHg, ratio of existence time to saline control; for response vs control in vivo at 12.5 mg/kg: administration dose = 12.5 mg/kg in the abdominal cavity; for response vs control in vivo at 50 mg/kg: administration dose = 50 mg/kg in the abdominal cavity. The format is in vivo.

For `CN(C)C(=O)n1cnc(Cc2ccccc2)c1` [compound 1, 4-benzyl-1-(N,N-dimethylcarbamoyl)imidazole], in experiment [1], the response vs control in vivo at 25 mg/kg worked out at 85%. As to `Cc1cccc(C)c1Cc1cn(C(=O)N(C)C)cn1` [compound 2], the response vs control in vivo at 25 mg/kg in experiment [1] stood at 305%.

In the case of `Cc1cc(C)c(Cc2cn(C(=O)N(C)C)cn2)c(C)c1` [compound 4], the response vs control in vivo at 25 mg/kg in experiment [1] came out at 184%. On to `Cc1cccc(C)c1Cc1cn(C(=O)N(C)C(C)C)cn1` [compound 9], for which, in experiment [1], the response vs control in vivo at 25 mg/kg came to 466%.

Regarding `Cc1cccc(C)c1Cc1cn(C(=O)N(C)C2CCCCC2)cn1` [compound 10], the response vs control in vivo at 25 mg/kg in experiment [1] was determined as 253%.

In the case of `C=CCN(C)C(=O)n1cnc(Cc2c(C)cccc2C)c1` [compound 11], in experiment [1], the response vs control in vivo at 25 mg/kg is 255%. `CON(C)C(=O)n1cnc(Cc2c(C)cccc2C)c1` [compound 12]: the response vs control in vivo at 25 mg/kg in experiment [1] was 109%. Same read-out and setting: next, `CCN(CC)C(=O)n1cnc(Cc2c(C)cccc2C)c1` [compound 13]: 281%; `Cc1cccc(C)c1Cc1cn(C(=O)N2CCCCC2)cn1` [compound 14]: 270%.

Turning to `Cc1cccc(C)c1Cc1cn(C(=O)N2CCOCC2)cn1` [compound 17], the response vs control in vivo at 25 mg/kg in experiment [1] was 165%.

As for `CCOC(=O)n1cnc(Cc2c(C)cccc2C)c1` [compound 18], the response vs control in vivo at 25 mg/kg in experiment [1] turned out to be 182%. For the compound `CN(C)C(=O)n1cnc(C[n+]2ccccc2)c1` [compound 19], the “Life Prolongation Ratio” value in experiment [1] was 1.09.

For `Cc1cccc(C)c1Cc1cn(C(=S)N(C)C)cn1` [compound 20], in experiment [1], the response vs control in vivo at 25 mg/kg turned out to be 243%. As for `CN(C)C(=O)Sc1nc(-c2ccccc2)c[nH]1` [compound 21, 2-(N,N-dimethylcarbamoylthio)-4-phenylimidazole], in experiment [1], the response vs control in vivo at 25 mg/kg is 283%. `CN(C)C(=O)Sc1nc(-c2ccccc2)cn1C` [compound 22]: the response vs control in vivo at 25 mg/kg in experiment [1] is 230%.

For `CCn1cc(-c2ccccc2)nc1SC(=O)N(C)C` [compound 23], the response vs control in vivo at 25 mg/kg in experiment [1] worked out at 264%. With `CCCn1cc(-c2ccccc2)nc1SC(=O)N(C)C` [compound 24], in experiment [1], the response vs control in vivo at 25 mg/kg is 163%.

For `CC(C)n1cc(-c2ccccc2)nc1SC(=O)N(C)C` [compound 25], the response vs control in vivo at 25 mg/kg in experiment [1] amounted to 119%. For `CN(C)C(=O)Sc1nc(-c2ccccc2)cn1C1CCCCC1` [compound 26], in experiment [1], the response vs control in vivo at 25 mg/kg was determined as 132%. Consider `CN(C)C(=O)Sc1nc(-c2ccccc2)cn1-c1ccccc1` [compound 27], for which the response vs control in vivo at 25 mg/kg in experiment [1] was 146%. The same measure, in the same setting: next, `CN(C)C(=O)Sc1nc(-c2ccccc2)cn1-c1ccc([N+](=O)[O-])cn1` [compound 28, 2-(N,N-dimethylcarbamoylthio)-1-(5-nitropyridinyl)-4-phenylimidazole]: 102%; `CN(C)C(=O)Sc1nc(-c2ccccc2)cn1-c1ncccc1[N+](=O)[O-]` [compound 29]: 110%.

Consider `CN(C)C(=O)Sc1nc(-c2ccccc2)cn1C(=O)N(C)C` [compound 30, 1-(N,N-dimethylcarbamoyl)-2-(N,N-dimethylcarbamoylthio)-4-phenylimidazole], for which, in experiment [1], the response vs control in vivo at 25 mg/kg came out at 115%. For the compound `CCOC(=O)n1cc(-c2ccccc2)nc1SC(=O)N(C)C` [compound 31], the response vs control in vivo at 25 mg/kg in experiment [1] amounted to 123%. Same read-out and setting: in the case of `CC(=O)n1cc(-c2ccccc2)nc1SC(=O)N(C)C` [compound 32] it was 281%; in that of `CC(=O)n1cc(-c2ccccc2)nc1SC(=O)N(C)C(C)C` [compound 33], 127%. For `CCN(CC)C(=O)Sc1nc(-c2ccccc2)c[nH]1` [compound 34], in experiment [2], the response vs control in vivo at 12.5 mg/kg was determined as 100%. Turning to `CCCN(CCC)C(=O)Sc1nc(-c2ccccc2)c[nH]1` [compound 35], in experiment [2], the response vs control in vivo at 12.5 mg/kg was determined as 87%. As to `O=C(Sc1nc(-c2ccccc2)c[nH]1)N1CCCC1` [compound 36], in experiment [2], the response vs control in vivo at 12.5 mg/kg turned out to be 94%. Turning to `O=C(Sc1nc(-c2ccccc2)c[nH]1)N1CCCCC1` [compound 37], the response vs control in vivo at 12.5 mg/kg in experiment [2] was 85%.

Consider `O=C(Sc1nc(-c2ccccc2)cn1C(=O)N1CCCCC1)N1CCCCC1` [compound 38], for which the response vs control in vivo at 25 mg/kg in experiment [1] was determined as 113%. Turning to `O=C(Sc1nc(-c2ccccc2)c[nH]1)N1CCOCC1` [compound 39], in experiment [2], the response vs control in vivo at 12.5 mg/kg was 104%. Turning to `O=C(Sc1nc(-c2ccccc2)c[nH]1)N1CCSCC1` [compound 40], the response vs control in vivo at 12.5 mg/kg in experiment [2] was 93%. On to `O=C(Sc1nc(-c2ccccc2)c[nH]1)N1CCCc2ccccc21` [compound 41], for which the response vs control in vivo at 12.5 mg/kg in experiment [2] stood at 76%. Regarding `Cc1[nH]c(SC(=O)N(C)C)nc1-c1ccccc1` [compound 42], the response vs control in vivo at 25 mg/kg in experiment [1] stood at 192%. Take `CCc1[nH]c(SC(=O)N(C)C)nc1-c1ccccc1` [compound 43]: the response vs control in vivo at 25 mg/kg in experiment [1] amounted to 121%. `CCOC(=O)c1[nH]c(SC(=O)N(C)C)nc1-c1ccccc1` [compound 44]: the response vs control in vivo at 25 mg/kg in experiment [1] was found to be 143%. As to `Cc1ccccc1-c1c[nH]c(SC(=O)N(C)C)n1` [compound 45], the response vs control in vivo at 25 mg/kg in experiment [1] amounted to 192%. Regarding `Cc1ccc(-c2c[nH]c(SC(=O)N(C)C)n2)cc1` [compound 46], the response vs control in vivo at 12.5 mg/kg in experiment [2] came to 95%.

Take `COc1ccc(-c2c[nH]c(SC(=O)N(C)C)n2)cc1` [compound 47]: in experiment [1], the response vs control in vivo at 25 mg/kg was found to be 165%. Consider `CN(C)C(=O)Sc1nc(-c2ccc(Cl)cc2)c[nH]1` [compound 48], for which the response vs control in vivo at 12.5 mg/kg in experiment [2] is 115%. `CN(C)C(=O)Sc1nc(-c2ccc(-c3ccccc3)cc2)c[nH]1` [compound 49]: in experiment [1], the response vs control in vivo at 25 mg/kg came to 127%. Same read-out and setting: next, `CN(C)C(=O)Sc1nccn1-c1ccccc1` [compound 50]: 127%.

Consider `CN(C)C(=O)Sc1nccn1-c1ccc([N+](=O)[O-])cn1` [compound 51], for which, in experiment [2], the response vs control in vivo at 50 mg/kg was 245%.

`CN(C)C(=O)Sc1nccn1-c1ncccc1[N+](=O)[O-]` [compound 52]: in experiment [2], the response vs control in vivo at 50 mg/kg amounted to 192%. In the case of `Cn1c(=O)sc2nc(-c3ccccc3)cn2c1=O` [compound 53, 3-methyl-7-phenyl-1,3,5-thiadiazino[3,2-a]imidazole-2,4(3H)-dione], in experiment [1], the response vs control in vivo at 25 mg/kg was 145%.

On to `CCn1c(=O)sc2nc(-c3ccccc3)cn2c1=O` [compound 54], for which the response vs control in vivo at 25 mg/kg in experiment [1] came out at 137%.
